Laboratory results as given in ChEMBL document CHEMBL5055681, “Optimized protocols for assessing libraries of poorly soluble sortase A inhibitors for antibacterial activity against medically-relevant bacteria, toxicity and enzyme inhibition” (Bioorg Med Chem, 2021).
In brackets after ≈: the same amount, converted by molar mass. Activity calls are given as the source filed them. The rule behind the calls is not given here.

Key:
[1] = Solubility of the compound in 5% DMSO in MHB assessed as precipitation at up to 3.9 ug/ml measured over 24 hrs; assay type: physicochemical; settings: dose < 3.9 µg/ml
[2] = test system: Staphylococcus aureus; assay: Antimicrobial activity against Staphylococcus aureus ATCC 25923 assessed as bacterial growth inhibition measured after 24 hrs by resazurin dye based broth microdilution method; assay type: functional
[3] = test system: Staphylococcus aureus; assay: Antimicrobial activity against Staphylococcus aureus ATCC 25923 assessed as bacterial growth inhibition measured after 24 hrs by CLSI based agar dilution method; assay type: functional
[4] = test system: Staphylococcus aureus; assay: Antimicrobial activity against Staphylococcus aureus ATCC 25923 assessed as zone of inhibition at 125 ug/ml measured after 24 hrs by disc diffusion method; assay type: functional, organism-based; settings: dose 125.0 µg/ml
[5] = test system: Staphylococcus aureus; assay: Antimicrobial activity against Staphylococcus aureus MRSA ATCC 43300 assessed as bacterial growth inhibition measured after 24 hrs by resazurin dye based broth microdilution method; assay type: functional
[6] = test system: Escherichia coli; assay: Antimicrobial activity against Escherichia coli ATCC 25922 assessed as bacterial growth inhibition measured after 24 hrs by resazurin dye based broth microdilution method; assay type: functional
[7] = Inhibition of Staphylococcus aureus sortase A using Abz-LPETGK(Dnp)-NH2 fluorescent peptide as a substrate assessed as substrate cleavage measured over 60 mins by FRET assay
[8] = test system: HEK293; assay: Cytotoxicity against HEK293 cells assessed as reduction in cell viability at 31.3 to 1000 ug/ml measured after 24 hrs by resazurin dye based cell viability assay; settings: human, hek293, 24 h, dose 31.3-1000 µg/ml
[9] = Ratio of MIC for antimicrobial activity against Staphylococcus aureus ATCC 25923 to IC50 for inhibition of Staphylococcus aureus sortase A using Abz-LPETGK(Dnp)-NH2 fluorescent peptide as substrate; assay type: toxicity
[10] = test system: Pseudomonas aeruginosa; assay: Antimicrobial activity against Pseudomonas aeruginosa ATCC 27853 assessed as bacterial growth inhibition measured after 24 hrs by resazurin dye based broth microdilution method; settings: ATCC 27853, 24 h
[11] = Solubility of the compound in 5% DMSO in MHB assessed as precipitation at up to 2.0 ug/ml measured over 24 hrs; assay type: physicochemical; settings: dose < 2 µg/ml
[12] = test system: Staphylococcus aureus; assay: Antimicrobial activity against Staphylococcus aureus ATCC 25923 assessed as zone of inhibition at 250 ug/ml measured after 24 hrs by disc diffusion method; assay type: functional, organism-based; settings: dose 250.0 µg/ml
[13] = test system: Staphylococcus aureus; assay: Antimicrobial activity against Staphylococcus aureus ATCC 25923 assessed as zone of inhibition at 500 ug/ml measured after 24 hrs by disc diffusion method; assay type: functional
[14] = Solubility of the compound in 5% DMSO in MHB assessed as precipitation at up to 500 ug/ml measured over 24 hrs; assay type: physicochemical; settings: dose < 500 µg/ml
[15] = test system: HEK293; assay: Cytotoxicity against HEK293 cells assessed as reduction in cell viability at 62.5 to 2000 ug/ml measured after 24 hrs by resazurin dye based cell viability assay; settings: human, hek293, 24 h, dose 62.5-2000 µg/ml

| Compound | solubility [1] | MIC [2] [µg/mL] | MIC [3] [µg/mL] | Activity [4] | MIC [5] [µg/mL] | MIC [6] [µg/mL] | IC50 [7] [µg/mL] | Activity [8] | Ratio [9] | MIC [10] [µg/mL] | solubility [11] | Activity [12] | zone of inhibition at 500 µg/mL ([13]; read-out: DIZ) [mm] | solubility [14] | Activity ([13]; dose 500.0 µg/ml) | Activity [15] |
| --- | --- | --- | --- | --- | --- | --- | --- | --- | --- | --- | --- | --- | --- | --- | --- | --- |
| COc1ccc2cc3[n+](cc2c1OC)CCc1cc2c(cc1-3)OCO2 [BERBERINE] | Soluble | 125 | 125 | Active | 125 | 250 | 6.9 | Non-Toxic | 18.1 | 500 |  |  |  |  |  |  |
| O=C(/C=C/c1ccccc1)c1ccccc1 [CHALCONE] |  | 125 (≈ 600 µM) | 125 (≈ 600 µM) |  | 125 (≈ 600 µM) | 500 (≈ 2400 µM) | 25.2 (≈ 121 µM) | Toxic | 5 | 500 (≈ 2400 µM) | Soluble | Active | 16 |  |  |  |
| COc1cc(/C=C/C(=O)CC(=O)/C=C/c2ccc(O)c(OC)c2)ccc1O [CURCUMIN] |  | 250 (≈ 679 µM) | 250 (≈ 679 µM) |  | 250 (≈ 679 µM) | 250 (≈ 679 µM) | 42.2 (≈ 115 µM) |  | 7.1 | 250 (≈ 679 µM) |  |  |  | Insoluble | Active | Toxic |
| O=c1c(O)c(-c2ccc(O)c(O)c2)oc2cc(O)cc(O)c12 [QUERCETIN] |  | 250 (≈ 827 µM) | 250 (≈ 827 µM) |  | 250 (≈ 827 µM) | 250 (≈ 827 µM) | 35.1 (≈ 116 µM) |  | 6 | 250 (≈ 827 µM) |  | Active |  | Insoluble |  | Non-Toxic |
